We go through one compound from patent US9861624B2, “Method of treating cancer” (Exelixis, Inc., priority 2012, dated 2018).

The test system of test [1] is CRPC patients with evidence of bone metastases. Kind of test: Adaptive phase 2 trial (NCT00940225), case studies of the first three CRPC patients with bone metastases. The format is in vivo, human. The settings on record: for PSA / serum tALP levels: Week 18. The protocol: In 2000, local disease recurrence was treated with radiation therapy. […] CAB with leuprolide and bicalutamide was initiated. […] All patients provided informed consent before study screening.

In another test the test system is xenograft tumor models. In words: Xenograft tumor models. The note with it: in vivo.
The subject of test [2] is murine pancreatic neuroendocrine tumor model. In words: Murine pancreatic neuroendocrine tumor model. The settings on record: mouse, in vivo.

For the compound `COc1cc2nccc(Oc3ccc(NC(=O)C4(C(=O)Nc5ccc(F)cc5)CC4)cc3)c2cc1OC` [Compound 1, N-(4-{[6,7-bis(methyloxy)quinolin-4-yl]oxy}phenyl)-N′-(4-fluorophenyl)cyclopropane-1,1-dicarboxamide], the increase in hemoglobin in test [1] (Patient 1, Week 2 compared with baseline) turned out to be 1.4 g/dL. Besides, the “radiotracer uptake by bone metastases on bone scan” value in test [1] (Patient 1, Week 6) is listed as “dramatic decrease”. Moreover, the bone lesions entry in test [1] (Patient 1, Week 12) was “near complete resolution”; in test [1] (three metastatic CRPC patients, summary) it was “near complete resolution”. Also, the PSA in test [1] (Patient 1, 430 ng/mL at baseline) is reported as 93.5 ng/mL; in test [1] (Patient 2, subsequent to crossing over to Compound 1 from placebo), 2 fold of baseline; in test [1] (Patient 3, 2.4 ng/mL at screening), 1.2 ng/mL. The “serum tALP levels” value in test [1] (Patient 1, 689 U/L at baseline) stood at 159 U/L; in test [1] (Patient 3, 869 U/L at baseline), 197 U/L. For the same compound, the bone pain result in test [1] (Patient 1, four weeks after start) is listed as “significant reduction”; in test [1] (Patient 2, Week 4), “reduction”. In test [1] (Patient 2, Week 6), the “radiotracer uptake by bone lesions on bone scan” value is reported as “slight flair”. The radiotracer uptake result in test [1] (Patient 2, Week 12) is “substantial reduction”. In addition, the hemoglobin increase turned out to be 1.8 g/dL in test [1] (Patient 2, Week 12 compared with baseline) and 2.2 g/dL in test [1] (Patient 3, Week 2 compared with baseline). Further, the PSA peak in test [1] (Patient 2, Week 16, after placebo Week 12 to 15, crossed over to Compound 1 at Week 15) was ~6 fold of baseline. Moreover, the “radiotracer uptake on bone scan” value in test [1] (Patient 3, Week 6) is given as “dramatic reduction”. Moreover, the “bone lesions on bone scan” value in test [1] (Patient 3, Week 12) is given as “complete resolution”. In addition, the pain result in test [1] (Patient 3, after three weeks) was “complete resolution”. The “uptake of radiotracer on bone scan” value in test [1] (all three patients, summary) was “striking decrease”. The “effect on tumors in xenograft tumor models” value with xenograft tumor models was “tumor regression”. Besides, in test [2], the overall survival result was “substantially improves”. Moreover, in test [2], the “tumor invasiveness and metastasis” value is “significantly reduces”.
